Legend:
[1] = target: human melatonin 1 receptors (human MT1 receptors) (Homo sapiens (Human), UniProt P48039); assay: Melatonin receptor binding assay, 2-[125I] Iodomelatonin, CHO-hMelR7 cell membrane fraction; settings: binding inhibition of 2-[125I] Iodomelatonin, CHO-hMelR7 membranes, 25° C., 2.5 hr
Procedure: (§1) Melatonin Receptor Binding Assay
(1) Preparation of CHO-hMelR7 Cells Expressing Human Melatonin 1 Receptors
(§2) (3) Preparation of Cell Membrane Fraction of CHO Cell (CHO-hMelR7 and CHO-hMT2) Stably Expressing Human MT1 and MT2 Receptors
(§3) CHO-hMelR7 and CHO-hMT2 cells were plated using Cellfactory (Nunc, #170009) under the conditions of 1×10^8 cells/2000 mL/flask. The cells were grown to confluent, and recovered by the following method. As the medium for CHO-hMelR7 and CHO-hMT2, MEM α containing 10% FBS and penicillin/streptomycin was used. […] of geneticin was added to the medium for CHO-hMT2.
(§4) The medium was discarded, cells were washed twice with 200 mL of EDTA/PBS(−), 200 mL of EDTA/PBS(−) was further added, and the cells were stood still at room temperature for 20 min until they were released. […] The mixture was further centrifuged at 1,500 rpm for 10 min at 4° C., and the obtained pellets were suspended in 20 mL of ice-cooled homogenizing buffer [10 mM NaHCO3, 5 mM EDTA, Protease inhibitor Complete (Roche), pH 7.4]. The cell suspension was homogenized 3 times using a polytron homogenizer at 20,000 rpm for 30 sec. The obtained homogenate was centrifuged (2,000 rpm, 10 min, 4° C.) using a low speed cooling centrifuge. The supernatant was recovered in an ultracentrifugation tube and ultracentrifuged (40,000 rpm, 60 min, 4° C.) using an ultracentrifuge (Beckman, L-90K). To the obtained pellets was added a suspending buffer [50 mM Tris-HCl, 1 mM EDTA, Protease inhibitor Complete (Roche), pH 7.4], and the pellets were suspended by pipetting. The protein concentration of this suspension was measured, diluted to 2 mg/mL to give cell membrane fractions of CHO-hMelR7 and CHO-hMT2 cells. […] Protein was quantified using BCA protein assay kit (Pierce) with BSA as the standard.
(§5) (4) Preparation of Membrane Fraction Suspension
(§6) Immediately before use, the membrane fractions of CHO-hMelR7 and CHO-hMT2 cells of the above-mentioned (3) were diluted 20-fold with assay buffer (50 mM Tris-HCl, pH 7.7).
(§7) Iodomelatonin (#NEX236, PerkinElmer) was diluted with the assay buffer to 400 pM for MT1 and 1 nM for MT2.
(§8) Then, a test compound (compound solution diluted with DMSO to 200-fold of the final measurement concentration) was added by 2 μL. 2 μL of DMSO was added to each well of the total binding control section, and 100 μM cold Melatonin solution (Sigma, diluted with DMSO to 100 μM) was added to each well of the nonspecific binding control section by 2 μL. Then, the membrane fraction suspension (100 μL) was added. […] Iodomelatonin solution of the above-mentioned (5) was added to each well mentioned above by 20 μL, and a binding reaction was carried out at 25° C. for 2.5 hr in a micromixer (TAITEC, Bioshaker M.BR-024).
(§9) Using a cell harvester (PerkinElmer), the binding reaction mixture in each well of the 96-well plate was transferred to a treated (immersed in 50 mM Tris, pH 7.7 in advance) filter plate (UniFilter GF/C, PerkinElmer) and filtered. After filtration, the plate was washed 4 times with the assay buffer, and dried in a dryer (42° C.) for 2 hr or more. 25 μL of a liquid scintillator (MicroScint O, PerkinElmer) was added to each well of the filter plate after drying, and the luminescence of scintillator was measured by TopCount (PerkinElmer) for 1 min.
(§10) Specific binding is a value obtained by subtracting nonspecific binding from the total binding. The binding inhibitory activity of the test compound is shown by the ratio of the value obtained by subtracting the measurement value when the test compound was added from the total binding, to the specific binding.

[2] = target: human melatonin 2 receptors (human MT2 receptors) (Homo sapiens (Human), UniProt P49286); assay: Melatonin receptor binding assay, 2-[125I] Iodomelatonin, CHO-hMT2 cell membrane fraction; settings: binding inhibition of 2-[125I] Iodomelatonin, CHO-hMT2 membranes, 25° C., 2.5 hr
human melatonin 2 receptors (human MT2 receptors), sequence (P49286 whole entry): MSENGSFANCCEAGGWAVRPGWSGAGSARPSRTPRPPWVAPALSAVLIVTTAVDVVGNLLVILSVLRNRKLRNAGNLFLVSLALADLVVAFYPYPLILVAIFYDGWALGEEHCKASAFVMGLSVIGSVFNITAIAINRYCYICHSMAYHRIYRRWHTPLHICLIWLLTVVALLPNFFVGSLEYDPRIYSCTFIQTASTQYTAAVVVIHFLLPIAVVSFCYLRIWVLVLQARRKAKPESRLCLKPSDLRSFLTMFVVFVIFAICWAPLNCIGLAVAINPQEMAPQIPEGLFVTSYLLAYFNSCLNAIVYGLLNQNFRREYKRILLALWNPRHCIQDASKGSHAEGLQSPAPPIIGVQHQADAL
Procedure: as §1
(2) Preparation of CHO-hMT2 Cells Expressing Human Melatonin 2 Receptors
CHO-K1 cells (ATCC, #CCL-61) were plated at the concentration of 1.5×10^5 cells/cm^2 in a 6 well plate (ASAHI TECHNO GLASS), and cultured under the conditions of 37° C., 5% CO2 for 24 hr.
as §2, §3, §4, §5, §6, §7, §8, §9, §10

human melatonin 1 receptors (human MT1 receptors), sequence (P48039 whole entry): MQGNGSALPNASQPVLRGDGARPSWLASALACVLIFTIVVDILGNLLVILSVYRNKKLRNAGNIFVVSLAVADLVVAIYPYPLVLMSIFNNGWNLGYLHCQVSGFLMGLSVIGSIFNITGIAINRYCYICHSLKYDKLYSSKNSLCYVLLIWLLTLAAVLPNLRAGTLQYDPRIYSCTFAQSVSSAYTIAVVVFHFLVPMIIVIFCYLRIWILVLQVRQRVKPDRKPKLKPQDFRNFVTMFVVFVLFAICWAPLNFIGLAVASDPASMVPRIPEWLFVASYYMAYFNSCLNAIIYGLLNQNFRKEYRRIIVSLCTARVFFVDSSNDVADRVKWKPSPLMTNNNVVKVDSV

`CCC(=O)NCC=C1CCc2ccc3ncoc3c21` [Example 2, N-[2-(6,7-Dihydro-8H-indeno[5,4-d][1,3]oxazol-8-ylidene)ethyl]propionamide] showed a melting point of 148 to 150 °C.
With `CC(=O)NCC=C1CCc2ccc3nc(C)oc3c21` [Example 3, N-[2-(2-Methyl-6,7-dihydro-8H-indeno[5,4-d][1,3]oxazol-8-ylidene)ethyl]acetamide] the IC50 [1] was 0.33 nM, the IC50 [2] was 0.37 nM and the melting point was 188 to 190 °C.
With `CC(=O)NCCC1=CCc2ccc3nc(C)oc3c21` [Example 4, N-[2-(2-Methyl-6H-indeno[5,4-d][1,3]oxazol-8-yl)ethyl]acetamide] the IC50 [1] was 0.068 nM, the IC50 [2] was 0.24 nM and the melting point was 154 to 156 °C.
Work on `CCC(=O)NCC=C1CCc2ccc3nc(C)oc3c21` [Example 5, N-[2-(2-Methyl-6,7-dihydro-8H-indeno[5,4-d][1,3]oxazol-8-ylidene)ethyl]propionamide] yielded an IC50 [1] of 0.25 nM, an IC50 [2] of 0.22 nM and a melting point of 214 to 216 °C.
In the case of `CC(=O)NCC=C1CCc2ccc3nc(CCCCc4ccccc4)oc3c21` [Example 6, N-{2-[2-(4-Phenylbutyl)-6,7-dihydro-8H-indeno[5,4-d][1,3]oxazol-8-ylidene]ethyl}acetamide], the IC50 [1] is reported as 0.079 nM, the IC50 [2] is reported as 0.43 nM and the melting point is reported as 113 to 115 °C.
`CCC(=O)NCC=C1CCc2ccc3nc(CCCCc4ccccc4)oc3c21` [Example 7, N-{2-[2-(4-Phenylbutyl)-6,7-dihydro-8H-indeno[5,4-d][1,3]oxazol-8-ylidene]ethyl}propionamide] gave a melting point of 111 to 113 °C.
`CC(=O)NCC=C1CCc2ccc3nc(C)sc3c21` [Example 8, N-[2-(2-Methyl-6,7-dihydro-8H-indeno[5,4-d][1,3]thiazol-8-ylidene)ethyl]acetamide] gave an IC50 [1] of 0.19 nM, an IC50 [2] of 0.22 nM and a melting point of 184 to 186 °C.
Work on `CC(=O)NCCC1CCc2ccc3ncoc3c21` (stereo not drawn) [Example 9, N-[2-(7,8-Dihydro-6H-indeno[5,4-d][1,3]oxazol-8-yl)ethyl]acetamide] yielded an IC50 [1] of 0.88 nM and an IC50 [2] of 0.31 nM.
`CCC(=O)NCCC1CCc2ccc3ncoc3c21` (stereo not drawn) [Example 10, N-[2-(7,8-Dihydro-6H-indeno[5,4-d][1,3]oxazol-8-yl)ethyl]propionamide] showed a melting point of 89 to 90 °C.
In the case of `CC(=O)NCCC1CCc2ccc3nc(C)oc3c21` (stereo not drawn) [Example 11, N-[2-(2-Methyl-7,8-dihydro-6H-indeno[5,4-d][1,3]oxazol-8-yl)ethyl]acetamide], the IC50 [1] is reported as 0.15 nM and the IC50 [2] is reported as 0.31 nM.
In the case of `CC(=O)NCC[C@H]1CCc2ccc3nc(C)oc3c21` [Example 13, (R)-N-[2-(2-Methyl-7,8-dihydro-6H-indeno[5,4-d][1,3]oxazol-8-yl)ethyl]acetamide], the IC50 [1] is reported as 15 nM and the IC50 [2] is reported as 9.6 nM.
`CCC(=O)NCCC1CCc2ccc3nc(C)oc3c21` (stereo not drawn) [Example 14, N-[2-(2-Methyl-7,8-dihydro-6H-indeno[5,4-d][1,3]oxazol-8-yl)ethyl]propionamide] showed an IC50 [1] of 0.13 nM and an IC50 [2] of 0.28 nM.
With `CCC(=O)NCC[C@H]1CCc2ccc3nc(C)oc3c21` [Example 16, (R)-N-[2-(2-Methyl-7,8-dihydro-6H-indeno[5,4-d][1,3]oxazol-8-yl)ethyl]propionamide] the IC50 [1] was 11 nM and the IC50 [2] was 6.2 nM.
For `CC(=O)NCCC1CCc2ccc3nc(CCCCc4ccccc4)oc3c21` (stereo not drawn) [Example 17, N-{2-[2-(4-Phenylbutyl)-7,8-dihydro-6H-indeno[5,4-d][1,3]oxazol-8-yl]ethyl}acetamide], the IC50 [1] was 0.022 nM and the IC50 [2] was 0.091 nM.
`CC(=O)NCC[C@H]1CCc2ccc3nc(C)sc3c21` [Example 21, (R)-N-[2-(2-Methyl-7,8-dihydro-6H-indeno[5,4-d][1,3]thiazol-8-yl)ethyl]acetamide] showed an IC50 [1] of 19 nM and an IC50 [2] of 8.5 nM.
`CCc1nc2ccc3c(c2o1)C(CCNC(C)=O)CC3` (stereo not drawn) [Example 22, N-[2-(2-Ethyl-7,8-dihydro-6H-indeno[5,4-d][1,3]oxazol-8-yl)ethyl]acetamide] showed an IC50 [1] of 0.36 nM, an IC50 [2] of 0.41 nM and a melting point of 76 to 78 °C.
`CC(=O)NCCC1CCc2ccc3nc(CO)oc3c21` (stereo not drawn) [Example 23, N-{2-[2-(Hydroxymethyl)-7,8-dihydro-6H-indeno[5,4-d][1,3]oxazol-8-yl]ethyl}acetamide] gave a melting point of 132 to 134 °C.
With `CC(=O)NCCC1CCc2ccc3nc(C(F)(F)F)oc3c21` (stereo not drawn) [Example 25, N-{2-[2-(Trifluoromethyl)-7,8-dihydro-6H-indeno[5,4-d][1,3]oxazol-8-yl]ethyl}acetamide] the melting point was 114 to 116 °C.
Molecule `CC(=O)CCc1nc2ccc3c(c2o1)C(CCNC(C)=O)CC3` (stereo not drawn) [Example 28, N-{2-[2-(3-Oxobutyl)-7,8-dihydro-6H-indeno[5,4-d][1,3]oxazol-8-yl]ethyl}acetamide] has a melting point of 111 to 112 °C.
With `CC(=O)NCCC1CCc2ccc3nc(C4CC4)oc3c21` (stereo not drawn) [Example 29, N-[2-(2-Cyclopropyl-7,8-dihydro-6H-indeno[5,4-d][1,3]oxazol-8-yl)ethyl]acetamide] the IC50 [1] was 0.66 nM, the IC50 [2] was 0.75 nM and the melting point was 92 to 95 °C.
With `CC(=O)NCCC1CCc2ccc3nc(-c4ccccc4)oc3c21` (stereo not drawn) [Example 30, N-[2-(2-Phenyl-7,8-dihydro-6H-indeno[5,4-d][1,3]oxazol-8-yl)ethyl]acetamide] the melting point was 124 to 126 °C.
For `CC(=O)NCCC1CCc2ccc3nc(CCc4ccccc4)oc3c21` (stereo not drawn) [Example 32, N-{2-[2-(2-Phenylethyl)-7,8-dihydro-6H-indeno[5,4-d][1,3]oxazol-8-yl]ethyl}acetamide], the melting point was 85 to 87 °C.
For `CC(=O)NCCC1CCc2ccc3nc(CCCc4ccccc4)oc3c21` (stereo not drawn) [Example 33, N-{2-[2-(3-Phenylpropyl)-7,8-dihydro-6H-indeno[5,4-d][1,3]oxazol-8-yl]ethyl}acetamide], the melting point was 95 to 97 °C.
Work on `CSc1nc2ccc3c(c2o1)C(CCNC(C)=O)CC3` (stereo not drawn) [Example 39, N-{2-[2-(Methylthio)-7,8-dihydro-6H-indeno[5,4-d][1,3]oxazol-8-yl]ethyl}acetamide] yielded a melting point of 115 to 117 °C.
For `Cc1nc2ccc3c(c2o1)C(CCNC(=O)C1CC1)CC3` (stereo not drawn) [Example 43, N-[2-(2-Methyl-7,8-dihydro-6H-indeno[5,4-d][1,3]oxazol-8-yl)ethyl]cyclopropanecarboxamide], the IC50 [1] was 0.25 nM, the IC50 [2] was 0.77 nM and the melting point was 134 to 137 °C.
Work on `Cc1nc2ccc3c(c2o1)C(CCNC(=O)c1ccccc1)CC3` (stereo not drawn) [Example 44, N-[2-(2-Methyl-7,8-dihydro-6H-indeno[5,4-d][1,3]oxazol-8-yl)ethyl]benzamide] yielded a melting point of 73 to 76 °C.
`CCNC(=O)NCCC1CCc2ccc3nc(C)oc3c21` (stereo not drawn) [Example 46, 1-Ethyl-3-[2-(2-methyl-7,8-dihydro-6H-indeno[5,4-d][1,3]oxazol-8-yl)ethyl]urea] showed a melting point of 136 to 138 °C.
`CC(=O)NCCC1=C(C(C)C)Cc2ccc3nc(C)oc3c21` [Example 49, N-[2-(7-Isopropyl-2-methyl-6H-indeno[5,4-d][1,3]oxazol-8-yl)ethyl]acetamide] gave a melting point of 135 to 138 °C.
